This is an account of results in PubChem BioAssay AID1918948 (Molecular Pharmacology Branch, DTP, NCI, 2023).

SMILES strings stand for the structures. Where “and” joins values, the source holds several entries; their conditions need not be identical. Identical values can stand only once.

This experiment concerns K-562 leukemia growth, % test/control. Briefly: Anticancer human tumor K-562 cell line growth inhibition.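 As to all read-outs here: spheroids exposed to compounds for 7 days.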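 As to viability, T/C: 100% = DMSO vehicle wells and lower values mean fewer viable cells.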 The note with it: spheroids with HUVEC and MSC; for viability, T/C: stronger effect = lower value; for IC50: curve of compound. An excerpt:
Multicellular complex tumor spheroid response to LSD1 Inhibitor Iadademstat in combination with a variety of drugs and investigational agents in selected tumor cell lines
The current study was undertaken to assess response to LSD1 inhibitors in combination with standard-of-care drugs and investigational agents in solid tumor complex spheroid models as well as in the K-562 leukemia. Complex spheroids include a stromal component modeled by human endothelial cells (HUVEC) and fibroblasts modeled by human mesenchymal stem cells (MSCs). The concentration ranges selected for each drug and investigational agent were based upon clinically achievable concentrations if the clinical Cmax of the agent was known.
Compounds. The drugs and investigational agents used in this study are listed on Table 1. All of the agents used, including staurosporine (NSC755774) and gemcitabine (NSC613327), were obtained from the Developmental Therapeutics Program, NCI. FDA-approved anticancer drugs are available from the NCI at http://dtp.nci.nih.gov/branches/dscb/oncology_drugset_explanation.html. Drugs and investigational agents were >95% pure by proton nuclear magnetic resonance (NMR) and liquid chromatography/mass spectrometry (LC/MS). Stock solutions were prepared at 400x in DMSO, stored at -70 degrees C, and diluted in fresh medium prior to their use. The final concentration of DMSO in cell culture wells never exceeded 0.25% (v/v). The FDA-approved anticancer drug set is available from the Developmental Therapeutics Program at https://dtp.cancer.gov/organization/dscb/obtaining/available_plates.htm. All drugs and investigational agents were tested over a range starting from a high concentration at or near the clinical Cmax and decreasing in half-log increments. If the clinical Cmax for an agent had not been determined, the highest concentration tested was 10 microM.
Cell Lines. The patient-derived cancer cell (PDC) lines: 292921-168-R-J2-PDC, K24384-001-R-PDC, and 521955-158-R2-J5-PDC pancreatic carcinomas, 556581-035-R-J1 ovarian carcinoma, 324938-238-R-J1-PDC, 855422-203-R-J1-PDC and 883617-216-R-J1-PDC urothelial bladder carcinomas, 743489-274-T-PDC renal cell carcinoma, 138582-R-J1 Merkel cell tumor, K60290-347-R-J1 and K57222-313-R-J1-PDC glioblastomas, 653999-131-R-J2-PDC, LG0703-F948-PDC, and 349418-098-R-PDC non-small cell lung carcinomas, 885512-296-R-J2-PDC, 171881-019-R-J1-PDC breast carcinomas and 186277-243-T-J2-PDC and 233499-124-R-J2-PDC colon carcinomas were obtained from the NCI Patient-Derived Models Repository (PDMR, https://pdmr.cancer.gov). The established cell lines NCI/ADR-RES (RRID:CVCL_14520 and OVCAR-5 (RRID:CVCL_1628) ovarian carcinomas, 786-O (RRID:CVCL_1051) and A498 (RRID:CVCL_A498) renal cell carcinoma, NCI-H211 (ATCC, cat. CRL-5824; RRID:CVCL_1529), NCI-H196 (ATCC, cat. CRL-5823, RRID:CVCL_1509), SW 1271 (ATCC, cat. CRL-2177, RRID:CVCL_1716) and NCI-H1876 (ATCC, cat. CRL-5902, RRID:CVCL_1503) small cell lung carcinomas, MDA-MB-231 (RRID:CVCL_0062) and MDA-MB-468 (RRID:CVCL_0419)breast carcinomas (10-12). Pooled donor human umbilical vein endothelial cells (HUVEC, Lonza, cat. CC-2519) and human mesenchymal stem cells (hMSC, Lonza, cat. PT-2501) were purchased from Lonza (Walkersville, MD).
Cell Culture. All cells were maintained in an incubator at 37 degrees C and 5% CO2 with 95% humidity. The PDC lines were cultured according to standard operating procedures established by the NCI PDMR (https://pdmr.cancer.gov). Briefly all PDCs were thawed and cultured in Matrigel-coated flasks prepared with a working solution of 1X Ham's F-12 nutrient mix, without supplementation (Invitrogen, Waltham, MA, cat. 11765054), 100 U/mL penicillin-streptomycin (Invitrogen, cat. 15140122), and 2.5% Matrigel (Corning Inc., Corning, NY, cat. 354248) for the first three passages. […]

In general, viability, T/C refers to the result in the treated group divided by that in the control group, in per cent. The IC50 is the concentration needed to halve the response being measured. As for `Cn1ncnc1C1c2n[nH]c(=O)c3cc(F)cc(c23)NC1c1ccc(F)cc1` (stereo unspecified), the IC50 is more than 0.1 µM. In addition, the viability, T/C (compound 0.000316 µM) is 104% and 106%. Besides, for the setting “compound 0.001 µM”, the viability, T/C is 95.2% and 105%. For the same molecule, for the setting “compound 0.00316 µM”, the viability, T/C was 98.8% and 96.9%. In addition, the viability, T/C (compound 0.01 µM) is 98.7% and 102%. Also, for the setting “compound 0.0316 µM”, the viability, T/C was 99.4% and 102%. Moreover, the viability, T/C (compound 0.1 µM) is 96.7% and 97.5%.

Regarding `NS(=O)(=O)OCC1CC(n2ccc3c(NC4CCc5ccccc54)ncnc32)CC1O` (stereo unspecified), the IC50 is 0.0476 µM and < 0.00949 µM. In addition, the viability, T/C (compound 0.00949 µM) is 65.6% and 51.5%. Further, the viability, T/C (compound 0.03 µM) is 47% and 34.4%. Moreover, the viability, T/C (compound 0.0949 µM) was 49.3% and 36.1%. Besides, the viability, T/C (compound 0.3 µM) is 34.9% and 20.1%. The viability, T/C (compound 0.949 µM) is 18% and 13.5%. The viability, T/C (compound 3 µM) was 11.5% and 4.24%.

For the molecule `Nc1ccccc1NC(=O)c1ccc(CNC(=O)OCc2cccnc2)cc1`, the IC50 was 0.449 µM and 0.188 µM. The viability, T/C (compound 0.00949 µM) is 107% and 112%. The viability, T/C (compound 0.03 µM) was 101% and 110%. The viability, T/C (compound 0.0949 µM) was 103% and 106%. For the same molecule, under “compound 0.3 µM”, the viability, T/C is 74.6% and 11.2%. For the same molecule, the viability, T/C (compound 0.949 µM) is 4.47% and 0.45%. Under “compound 3 µM”, the viability, T/C was 0.26% and 0.16%.

As to `Nc1ccn(C2OC(CO)C(O)C2(F)F)c(=O)n1` (stereo unspecified), the viability, T/C is 45.4% and 98.6% (compound 0.000949 µM); 18.2% and 91.7% (compound 0.003 µM); 14.6% and 51.5% (compound 0.00949 µM); 13.6% and 21% (compound 0.03 µM); 15.1% and 19.3% (compound 0.0949 µM); 13.9% and 16.9% (compound 0.3 µM).

For `Nc1ncn(C2CC(O)C(CO)O2)c(=O)n1` (stereo unspecified), the IC50 was more than 1 µM. In addition, the viability, T/C (compound 0.00316 µM) was 94.7% and 99.7%. Besides, under “compound 0.01 µM”, the viability, T/C is 93.9% and 96.9%. Further, the viability, T/C (compound 0.0316 µM) was 88.5% and 96.1%. In addition, the viability, T/C (compound 0.1 µM) was 79.7% and 89.2%. The viability, T/C (compound 0.316 µM) is 72.3% and 74.6%. Also, the viability, T/C (compound 1 µM) was 67.1% and 75.9%.

As to `Nc1ncn(C2CC(O)C(CO)S2)c(=O)n1` (stereo unspecified), the IC50 is 0.185 µM and 0.106 µM. For the same molecule, the viability, T/C (compound 0.000949 µM) was 111% and 100%. For the same molecule, the viability, T/C (compound 0.003 µM) is 109% and 106%. The viability, T/C (compound 0.00949 µM) is 109% and 105%. In addition, the viability, T/C (compound 0.03 µM) was 94.4% and 87.5%. Also, the viability, T/C (compound 0.0949 µM) is 67.2% and 53.8%. For the same molecule, the viability, T/C (compound 0.3 µM) is 37.7% and 19.5%.

Take `O=C(C=Cc1cccc(S(=O)(=O)Nc2ccccc2)c1)NO`: the IC50 is 0.483 µM and 0.235 µM. Besides, the viability, T/C (compound 0.00949 µM) is 100% and 96%. The viability, T/C (compound 0.03 µM) is 98.5% and 97.4%. For the same molecule, the viability, T/C (compound 0.0949 µM) was 101% and 98.3%. Also, for the setting “compound 0.3 µM”, the viability, T/C was 83.7% and 5.37%. In addition, the viability, T/C (compound 0.949 µM) was 2.11% and 0.8%.

For the molecule `O=C(C=Cn1cnc(-c2cc(C(F)(F)F)cc(C(F)(F)F)c2)n1)NNc1cnccn1`, the IC50 was 0.0763 µM and 0.123 µM. Also, the viability, T/C (compound 0.00316 µM) was 102% and 101%. For the same molecule, under “compound 0.01 µM”, the viability, T/C is 103%. Moreover, the viability, T/C (compound 0.0316 µM) was 92.1% and 101%. Moreover, for the setting “compound 0.1 µM”, the viability, T/C was 37.1% and 58.4%. In addition, the viability, T/C (compound 0.316 µM) is 4.12% and 9.78%. Besides, the viability, T/C (compound 1 µM) was 1.22% and 1.15%.

Turning to `O=C(c1cc(Cc2n[nH]c(=O)c3ccccc23)ccc1F)N1CCN(C(=O)C2CC2)CC1`, the IC50 was 9.47 µM and > 10 µM. For the same molecule, the viability, T/C (compound 0.0316 µM) is 97% and 101%. In addition, the viability, T/C (compound 0.1 µM) is 99.8% and 101%. Also, the viability, T/C (compound 0.316 µM) was 99% and 103%. Besides, the viability, T/C (compound 1 µM) is 97.1% and 101%. Besides, the viability, T/C (compound 3.16 µM) was 88.5% and 94.2%. Moreover, the viability, T/C (compound 10 µM) is 48.1% and 50.1%.
